# Biological target: Cdk9/cyclinT1 (Homo sapiens, UniProt P50750)
# Assay: Cdk9/cyclinT1 IMAP protocol (fluorescence polarization)
# Settings: IC-50, CDK9; lower limit of assay 0.0005 micromolar
# Cdk9/cyclinT1, sequence (P50750 whole entry): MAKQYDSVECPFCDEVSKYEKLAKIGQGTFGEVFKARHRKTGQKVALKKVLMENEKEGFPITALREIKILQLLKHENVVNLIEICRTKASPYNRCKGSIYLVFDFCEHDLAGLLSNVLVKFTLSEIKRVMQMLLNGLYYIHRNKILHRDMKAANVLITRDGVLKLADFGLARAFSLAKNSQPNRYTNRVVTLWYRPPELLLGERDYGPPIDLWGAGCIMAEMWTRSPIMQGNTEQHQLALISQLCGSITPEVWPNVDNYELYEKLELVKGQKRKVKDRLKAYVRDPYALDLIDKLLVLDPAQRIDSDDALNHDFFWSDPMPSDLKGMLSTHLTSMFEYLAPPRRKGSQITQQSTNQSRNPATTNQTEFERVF
# Cdk9/cyclinT1, sequence (O60563 whole entry partner): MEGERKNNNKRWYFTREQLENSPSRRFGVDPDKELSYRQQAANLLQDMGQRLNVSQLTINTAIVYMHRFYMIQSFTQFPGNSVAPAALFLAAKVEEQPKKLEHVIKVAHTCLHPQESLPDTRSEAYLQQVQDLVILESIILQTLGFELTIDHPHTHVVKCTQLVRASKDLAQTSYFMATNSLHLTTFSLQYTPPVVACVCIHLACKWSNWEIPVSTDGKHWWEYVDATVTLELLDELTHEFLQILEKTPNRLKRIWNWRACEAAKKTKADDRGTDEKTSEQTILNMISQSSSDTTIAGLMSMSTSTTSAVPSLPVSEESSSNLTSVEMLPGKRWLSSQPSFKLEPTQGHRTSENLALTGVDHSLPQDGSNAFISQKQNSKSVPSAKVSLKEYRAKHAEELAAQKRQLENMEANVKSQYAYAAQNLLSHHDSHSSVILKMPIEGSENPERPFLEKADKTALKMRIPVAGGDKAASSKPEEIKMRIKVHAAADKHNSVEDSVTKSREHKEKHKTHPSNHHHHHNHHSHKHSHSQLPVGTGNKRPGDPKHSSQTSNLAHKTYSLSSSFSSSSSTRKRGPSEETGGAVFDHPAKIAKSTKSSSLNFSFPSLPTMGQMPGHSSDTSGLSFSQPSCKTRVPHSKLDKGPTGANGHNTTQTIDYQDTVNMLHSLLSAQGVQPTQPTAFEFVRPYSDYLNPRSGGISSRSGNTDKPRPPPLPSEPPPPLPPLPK
row,Structure (SMILES),IC50 [nM]
1,"NC(=O)C1(CNc2cccc(-c3cc(N[C@H]4CC[C@H](N)CC4)ncc3F)n2)CC1 [Compound 487, 1-(((2′-((trans-4-aminocyclohexyl)amino)-5′-fluoro-[2,4′-bipyridin]-6-yl)amino)methyl)cyclopropane-carboxamide]",< 0.5
2,"NC(=O)C1(CNc2cccc(-c3cc(N[C@H]4CC[C@H](N)CC4)ncc3F)n2)CCOCC1 [Compound 485, 4-(((2′-((trans-4-aminocyclohexyl)amino)-5′-fluoro-[2,4′-bipyridin]-6-yl)amino)methyl)tetrahydro-2H-pyran-4-carboxamide]",1.8
3,"COC[C@@H](C)N[C@H]1CC[C@H](Nc2cc(-c3cncc(OCC4(C#N)CCOCC4)n3)c(Cl)cn2)CC1 [Compound 509, 4-(((6-(5-chloro-2-((trans-4-(((R)-1-methoxypropan-2-yl)amino)cyclohexyl)amino)pyridin-4-yl)pyrazin-2-yl)oxy)methyl)tetrahydro-2H-pyran-4-carbonitrile]",1.1
4,"CCOC(=O)C(C)(C)N[C@H]1CC[C@H](Nc2cc(-c3cccc(NCC4(C#N)CCOCC4)n3)c(Cl)cn2)CC1 [Compound 452, ethyl 2-((trans-4-((5′-chloro-6-(((4-cyanotetrahydro-2H-pyran-4-yl)methyl)amino)-[2,4′-bipyridin]-2′-yl)amino)cyclohexyl)amino)-2-methylpropanoate]",0.7
5,"CC(C)(C)OCCN[C@H]1CC[C@H](Nc2cc(-c3cccc(NCC4(C#N)CCOCC4)n3)c(Cl)cn2)CC1 [Compound 432, 4-(((2′-((trans-4-((2-(tert-butoxy)ethyl)amino)cyclohexyl)amino)-5′-chloro-[2,4′-bipyridin]-6-yl)amino)methyl)tetrahydro-2H-pyran-4-carbonitrile]",< 0.5
6,"COCCN[C@H]1CC[C@H](Nc2cc(-c3cncc(OCC4(C#N)CCOCC4)n3)c(Cl)cn2)CC1 [Compound 510, 4-(((6-(5-chloro-2-((trans-4-((2-methoxyethyl)amino)cyclohexyl)amino)pyridin-4-yl)pyrazin-2-yl)oxy)methyl)tetrahydro-2H-pyran-4-carbonitrile]",1.3
7,CC1(CNc2nc(-c3cc(N[C@H]4CC[C@@H](N)CC4)ncc3Cl)ccc2F)CCOCC1 [Compound 466],3.9
8,"N#CC1(CNc2cccc(-c3cc(N[C@H]4CC[C@H](NC[C@@H]5CCCO5)CC4)ncc3F)n2)CCOCC1 [Compound 483, 4-(((5′-fluoro-2′-((trans-4-((((S)-tetrahydrofuran-2-yl)methyl)amino)cyclohexyl)amino)-[2,4′-bipyridin]-6-yl)amino)methyl)tetrahydro-2H-pyran-4-carbonitrile]",< 0.5
9,"COC[C@H](C)N[C@H]1CC[C@H](Nc2cc(-c3ccc(F)c(NCC4CCOC(C)(C)C4)n3)c(Cl)cn2)CC1 (stereo partly drawn) [Compound 457, 5′-chloro-N6-((2,2-dimethyltetrahydro-2H-pyran-4-yl)methyl)-5-fluoro-N2′-(trans-4-(((S)-1-methoxypropan-2-yl)amino)cyclohexyl)-[2,4′-bipyridine]-2′,6-diamine]",1.6
10,"N#CC1(CNc2cccc(-c3cc(N[C@H]4CC[C@H](N)CC4)ncc3F)n2)CC1 [Compound 486, 1-(((2′-((trans-4-aminocyclohexyl)amino)-5′-fluoro-[2,4′-bipyridin]-6-yl)amino)methyl)cyclopropane-carbonitrile]",< 0.5
11,"N#CC1(COc2cncc(-c3cc(N[C@H]4CC[C@H](N)CC4)ncc3Cl)n2)CCOCC1 [Compound 511, 4-(((6-(2-((trans-4-aminocyclohexyl)amino)-5-chloropyridin-4-yl)pyrazin-2-yl)oxy)methyl)tetrahydro-2H-pyran-4-carbonitrile]",0.6
12,"N#CC1(CNc2cccc(-c3cc(N[C@@H]4CC[C@@H](NCC5CCCO5)C4)ncc3Cl)n2)CCOCC1 (stereo partly drawn) [Compound 410, 4-(((5′-chloro-2′-(((1R,3R)-3-(((tetrahydrofuran-2-yl)methyl)amino)cyclopentyl)amino)-[2,4′-bypyridin]-6-yl)amino)methyl)tetrahydro-2H-pyran-4-carbonitrile]",< 0.5
13,"CC(C)(NC[C@H]1CC[C@H](Nc2cc(-c3cccc(NCC4(C#N)CCOCC4)n3)c(Cl)cn2)CC1)C(=O)O [Compound 429, 2-(((trans-4-((5′-chloro-6-(((4-cyanotetrahydro-2H-pyran-4-yl)methyl)amino)-[2,4′-bipyridin]-2′-yl)amino)cyclohexyl)methyl)amino)-2-methylpropanoic acid]",1.3
14,"CC(C)(CO)N[C@H]1CC[C@H](Nc2cc(-c3cccc(NCC4(C#N)CCOCC4)n3)c(Cl)cn2)CC1 [Compound 453, 4-(((5′-chloro-2′-((trans-4-((1-hydroxy-2-methylpropan-2-yl)amino)cyclohexyl)amino)-[2,4′-bipyridin]-6-yl)amino)methyl)tetrahydro-2H-pyran-4-carbonitrile]",< 0.5
15,"N#CC1(CNc2cccc(-c3cc(NCC4CCOCC4)ncc3Cl)n2)CCOCC1 [Compound 441, 4-(((5′-chloro-2′-(((tetrahydro-2H-pyran-4-yl)methyl)amino)-[2,4′-bipyridin]-6-yl)amino)methyl)tetrahydro-2H-pyran-4-carbonitrile]",3
16,"COCCN[C@H]1CC[C@H](Nc2cc(-c3ccc(F)c(NCC4(C)CCOCC4)n3)c(Cl)cn2)CC1 [Compound 481, 5′-chloro-5-fluoro-N2′-(trans-4-((2-methoxyethyl)amino)cyclohexyl)-N6-((4-methyltetrahydro-2H-pyran-4-yl)methyl)-[2,4′-bipyridine]-2′,6-diamine]",< 0.5

# Further lines, results first:
row,IC50 [nM],Structure (SMILES)
1,4.9,"COCCO[C@H]1CC[C@H](Nc2cc(-c3cccc(NCC4(C#N)CCOCC4)n3)c(Cl)cn2)CC1 [Compound 415, 4-(((5′-chloro-2′-((trans-4-(2-methoxyethoxy)cyclohexyl)amino)-[2,4′-bipyridin]-6-yl)amino)methyl)tetrahydro-2H-pyran-4-carbonitrile]"
2,< 0.5,"CO[C@H]1C[C@H](Nc2cc(-c3cccc(NCC4(C#N)CCOCC4)n3)c(Cl)cn2)CC[C@H]1N (single isomer, unassigned) [Compound 436]"
3,< 0.5,"CC(C)N[C@H]1CC[C@H](Nc2cc(-c3cccc(NCC4(C#N)CCOCC4)n3)c(Cl)cn2)CC1 [Compound 412, 4-(((5′-chloro-2′-((trans-4-(isopropylamino)cyclohexyl)amino)-[2,4′-bipyridin]-6-yl)amino)methyl)tetrahydro-2H-pyran-4-carbonitrile]"
4,< 0.5,"N#CC1(CNc2cccc(-c3cc(N[C@H]4CC[C@H](NC[C@@H]5CCCO5)CC4)ncc3Cl)n2)CCOCC1 [Compound 472, 4-(((5′-chloro-2′-((trans-4-((((S)-tetrahydrofuran-2-yl)methyl)amino)cyclohexyl)amino)-[2,4′-bipyridin]-6-yl)amino)methyl)tetrahydro-2H-pyran-4-carbonitrile]"
5,0.6,"CO[C@H]1CCN([C@H]2CC[C@H](Nc3cc(-c4cccc(NCC5(C#N)CCOCC5)n4)c(Cl)cn3)CC2)C1 [Compound 475, 4-(((5′-chloro-2′-((trans-4-((S)-3-methoxypyrrolidin-1-yl)cyclohexyl)amino)-[2,4′-bipyridin]-6-yl)amino)methyl)tetrahydro-2H-pyran-4-carbonitrile]"
6,0.6,"N#CC1(CNc2cccc(-c3cc(N[C@H]4CC[C@H](N5CCCOCC5)CC4)ncc3Cl)n2)CCOCC1 [Compound 428, 4-(((2′-((trans-4-(1,4-oxazepan-4-yl)cyclohexyl)amino)-5′-chloro-[2,4′-bipyridin]-6-yl)amino)methyl)tetrahydro-2H-pyran-4-carbonitrile]"
7,< 0.5,"COC(=O)NC[C@H]1CC[C@H](Nc2cc(-c3cccc(NCC4(C#N)CCOCC4)n3)c(Cl)cn2)CC1 [Compound 497, methyl ((trans-4-((5′-chloro-6-(((4-cyanotetrahydro-2H-pyran-4-yl)methyl)amino)-[2,4′-bipyridin]-2′-yl)amino)cyclohexyl)methyl) carbamate]"
8,0.8,"CO[C@@H]1CCN([C@H]2CC[C@H](Nc3cc(-c4cccc(NCC5(C#N)CCOCC5)n4)c(Cl)cn3)CC2)C1 [Compound 477, 4-(((5′-chloro-2′-((trans-4-((R)-3-methoxypyrrolidin-1-yl)cyclohexyl)amino)-[2,4′-bipyridin]-6-yl)amino)methyl)tetrahydro-2H-pyran-4-carbonitrile]"
9,0.6,"N#CC1(CNc2cccc(-c3cc(N[C@H]4CC[C@H](N5CCOCC5)CC4)ncc3Cl)n2)CCOCC1 [Compound 442, 4-(((5′-chloro-2′-((trans-4-morpholinocyclohexyl)amino)-[2,4′-bipyridin]-6-yl)amino)methyl)tetrahydro-2H-pyran-4-carbonitrile]"
10,2.9,"C[C@H]1COCCN1[C@H]1CC[C@H](Nc2cc(-c3cccc(NCC4(C#N)CCOCC4)n3)c(Cl)cn2)CC1 [Compound 502, 4-((5′-chloro-2′-(trans-4-((S)-3-methylmorpholino)cyclohexyl-amino)-2,4′-bipyridin-6-ylamino)methyl)tetrahydro-2H-pyran-4-carbonitrile]"
11,0.8,"COCCNC(=O)[C@H]1CC[C@H](Nc2cc(-c3cccc(NCC4(C#N)CCOCC4)n3)c(Cl)cn2)CC1 [Compound 455, trans-4-((5′-chloro-6-(((4-cyanotetrahydro-2H-pyran-4-yl)methyl)amino)-[2,4′-bipyridin]-2′-yl)amino)-N-(2-methoxyethyl)cyclohexane-carboxamide]"
12,< 0.5,"CS(=O)(=O)NC[C@H]1CC[C@H](Nc2cc(-c3cccc(NCC4(C#N)CCOCC4)n3)c(Cl)cn2)CC1 [Compound 494, N-((trans-4-((5′-chloro-6-(((4-cyanotetrahydro-2H-pyran-4-yl)methyl)amino)-[2,4′-bipyridin]-2′-yl)amino)cyclohexyl)methyl) methanesulfonamide]"
13,1,"CC1(CN[C@H]2CC[C@H](Nc3cc(-c4cccc(NCC5(C#N)CCOCC5)n4)c(Cl)cn3)CC2)COC1 [Compound 430, 4-(((5′-chloro-2′-((trans-4-(((3-methyloxetan-3-yl)methyl)amino)cyclohexyl)amino)-[2,4′-bipyridin]-6-yl)amino)methyl)tetrahydro-2H-pyran-4-carbonitrile]"
